Nine compounds from PMC2923778 (Journal of Molecular Biology, 2010) can be followed below.

One test concerns the target T1, mSPSB4ΔSB (Mus musculus, UniProt Q8R5B6).
T1 construct: mSPSB1 and mSPSB4 lacking the C-terminal SOCS box region (mSPSB1ΔSB and mSPSB4ΔSB); GST (cleaved yes); made in house; host or cells: E. coli Origami B(DE3) pLysS
T1 sequence (Q8R5B6 1-233): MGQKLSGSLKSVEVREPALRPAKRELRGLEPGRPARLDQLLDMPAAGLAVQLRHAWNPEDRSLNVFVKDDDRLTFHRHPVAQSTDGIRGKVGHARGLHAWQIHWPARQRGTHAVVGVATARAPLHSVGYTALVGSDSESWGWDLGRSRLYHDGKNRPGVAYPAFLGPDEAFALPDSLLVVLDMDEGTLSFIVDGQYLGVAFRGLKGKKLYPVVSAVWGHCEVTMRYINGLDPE
Put plainly: ITC of hPar-4 peptides with mSPSB4ΔSB. In kind it is binding, murine. As to conditions: 22 °C. As to the method:
(§1) Shorter mSPSB constructs were also used for mSPSB1 and mSPSB4 lacking the C-terminal SOCS box region (mSPSB1ΔSB and mSPSB4ΔSB); they were cloned into pGEX-2T (GE Healthcare, UK). […] Each of the mSPSBΔSB constructs was expressed in Origami B(DE3) pLysS cells (Novagen, Madison, WI) as a GST fusion protein at 20 °C for 24 h with 0.5 mM IPTG added at OD600 = 0.6–0.8.
(§2) ITC measurements on mSPSB proteins were performed at 22 °C using a MicroCalorimetry System (MicroCal, Northhampton, MA). mSPSB1, mSPSB2, and mSPSB4 were prepared by dialyzing against 20 mM Tris, 150 mM sodium chloride, and 2.5 mM calcium chloride at pH 8.0. Measurements on hSPSB proteins were performed at 20 °C using a VP-ITC titration calorimeter (MicroCal). hSPSB1 protein was dialyzed against 50 mM Hepes, pH 7.4, 150 mM NaCl, and 1 mM DTT. hSPSB2 and hSPSB4 proteins were dialyzed against 50 mM Hepes, pH 7.4, 150 mM NaCl, and 0.5 mM TCEP. Peptides for each experiment were dissolved in the corresponding dialysis buffers. ITC measurements were routinely carried out by titrating 100 μM peptide solution into 10 μM protein. Dilution enthalpies were determined separately by titrating peptide into buffer and used to correct the enthalpies of the binding of protein and peptide. Data were analyzed using a single binding site model implemented in the Origin software package provided with the instrument.

In a further test the target is T2, mSPSB2(12–224) (Mus musculus, UniProt O88838).
T2 construct: mSPSB2(12–224) and mutants used in this study have been described previously; GST (cleaved yes); made in house; host or cells: E. coli Origami B(DE3) pLysS
T2 sequence (O88838 12-224): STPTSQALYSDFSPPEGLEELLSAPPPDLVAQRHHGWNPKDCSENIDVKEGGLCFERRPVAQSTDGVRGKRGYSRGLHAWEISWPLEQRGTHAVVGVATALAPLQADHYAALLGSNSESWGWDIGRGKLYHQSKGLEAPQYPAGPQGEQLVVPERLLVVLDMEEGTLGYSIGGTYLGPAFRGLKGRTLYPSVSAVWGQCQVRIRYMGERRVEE
The test can be described thus: ITC of hPar-4 peptides with mSPSB2(12–224). The test is classed as binding, murine. As to conditions: 22 °C, pH 8.0, nm [sic]. As to the method:
as §1, §2

The next test addresses T3, mSPSB1ΔSB (Mus musculus, UniProt Q9D5L7).
T3 construct: mSPSB1 and mSPSB4 lacking the C-terminal SOCS box region (mSPSB1ΔSB and mSPSB4ΔSB); GST (cleaved yes); made in house; host or cells: E. coli Origami B(DE3) pLysS
T3 sequence (Q9D5L7 1-231): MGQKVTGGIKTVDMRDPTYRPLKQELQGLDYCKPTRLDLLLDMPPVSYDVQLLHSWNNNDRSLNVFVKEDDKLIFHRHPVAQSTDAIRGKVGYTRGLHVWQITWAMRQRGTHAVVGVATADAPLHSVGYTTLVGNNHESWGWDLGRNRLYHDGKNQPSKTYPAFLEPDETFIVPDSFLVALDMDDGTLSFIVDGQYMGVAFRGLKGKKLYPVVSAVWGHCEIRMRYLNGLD
Put plainly: ITC of hPar-4 peptides with mSPSB1ΔSB. The test is classed as binding, murine. As to conditions: 22 °C.
Text: Shorter mSPSB constructs were also used for mSPSB1 and mSPSB4 lacking the C-terminal SOCS box region (mSPSB1ΔSB and mSPSB4ΔSB); they were cloned into pGEX-2T (GE Healthcare, UK). The shorter mSPSB2 construct excluded the first 11 residues at the N-terminus and the C-terminus SOCS box [mSPSB2(12–224)]. mSPSB2(12–224) and mutants used in this study have been described previously.[21] Each of the mSPSBΔSB constructs was expressed in Origami B(DE3) pLysS cells (Novagen, Madison, WI) as a GST fusion protein at 20 °C for 24 h with 0.5 mM IPTG added at OD600 = 0.6–0.8. The mSPSBΔSB proteins were isolated according to the method used for purifying the mSPSB–elonginBC complex.
as §2

A further test has as its target mSPSB4ΔSB (murine). Put plainly: ITC; 100 μM peptide titrated into 10 μM mSPSB protein; 22 °C; 20 mM Tris, 150 mM sodium chloride, 2.5 mM calcium chloride, pH 8.0; single binding site model. For orientation: In ITC the heat of successive injections is recorded.
Where [1] appears, read: 20 mM Tris, 150 mM NaCl, 2.5 mM CaCl2, pH 8.0, 100 μM peptide into 10 μM protein, ± standard error of the mean.

Where no end group is shown, it is not given here. A value given as a limit tells only on which side of the number the result lay.

For AAANEINNNLPGGA [[L69I]hPar-4(64–77)], the Kd on mSPSB4ΔSB (setting [1]) was 0.055 ± 0.008 µM.

At mSPSB4ΔSB (setting [1]), “GTPAAAADNELNNNLPGGA [[A66D]hPar-4(59–77)]” came in with a dissociation constant (Kd) of 0.255 ± 0.005 µM.

For the compound AAANELANNLPGGA [[N70A]hPar-4(64–77)], the Kd is more than 50 µM on mSPSB2(12–224); more than 50 µM on mSPSB1ΔSB (pH 8.0, nm [sic]); more than 50 µM on mSPSB4ΔSB (pH 8.0, nm [sic]).

As for hPar-4(59–77) (peptide), the Kd in the test with mSPSB4ΔSB (murine) was found to be 0.189 µM.

At mSPSB4ΔSB (setting [1]), AAANDLNNNLPGGA [[E68D]hPar-4(64–77)] registered a Kd of 0.047 ± 0.022 µM.

In turn, `CC(C)C[C@H](NC(=O)[C@H](CCC(=O)O)NC(=O)[C@H](CC(N)=O)NC(=O)[C@H](C)NC(=O)[C@H](C)NC(=O)[C@H](C)NC(=O)[C@H](C)NC(=O)[C@H](C)NC(=O)[C@@H]1CCCN1C(=O)[C@@H](NC(=O)CN)[C@@H](C)O)C(=O)N[C@@H](CC(N)=O)C(=O)N[C@@H](CC(N)=O)C(=O)N[C@@H](C)C(=O)N[C@@H](CC(C)C)C(=O)N1CCC[C@H]1C(=O)NCC(=O)NCC(=O)N[C@@H](C)C(=O)O` [[N72A]hPar-4(59–77)] had a Kd at mSPSB2(12–224) of more than 50 µM.

“AAANDINNNLPGGA [[E68D,L69I]hPar-4(64–77)]”: the Kd amounted to 0.04 ± 0.005 µM on mSPSB1ΔSB (setting [1]) and 0.033 ± 0.023 µM on mSPSB4ΔSB (setting [1]).

In the case of AAANELNNNLPGGA [hPar-4(64–77)], the results for the Kd on mSPSB1ΔSB (setting [1]) and on mSPSB4ΔSB (setting [1]) were 0.21 ± 0.019 µM and 0.213 ± 0.007 µM, respectively.

For AAANELNANLPGGA [[N71A]hPar-4(64–77)], the Kd at mSPSB2(12–224) is more than 50 µM; on mSPSB1ΔSB (pH 8.0, nm [sic]) it was more than 50 µM; on mSPSB4ΔSB (pH 8.0, nm [sic]), more than 50 µM.

Broadly, the Kd is the constant that tells how readily two partners part at equilibrium.
